Here are results for 1 compound from ChEMBL document CHEMBL2074201, “Cepharanthin, a multidrug resistant modifier, is a substrate for P-glycoprotein” (J Pharmacol Exp Ther, 1995).

Data set [1] concerns the target T1, ATP-dependent translocase ABCB1 (Homo sapiens, UniProt P08183). Nature of the data set: TP_TRANSPORTER: transepithelial transport (basal to apical) in MDR1-expressing LLC-PK1 cells. The note with it: pig. In kind it is functional, cell-based.
For data set [2], the target named is T1, ATP-dependent translocase ABCB1. Kind of data set: TP_TRANSPORTER: inhibition of Daunorubicin transepithelial transport (basal to apical) (Daunorubicin: 0.1 uM) in MDR1-expressing LLC-PK1 cells. In kind it is functional, cell-based.

A word on the IC50: it is the point on the concentration scale where inhibition reaches its midpoint.

T1 sequence (P08183 whole entry): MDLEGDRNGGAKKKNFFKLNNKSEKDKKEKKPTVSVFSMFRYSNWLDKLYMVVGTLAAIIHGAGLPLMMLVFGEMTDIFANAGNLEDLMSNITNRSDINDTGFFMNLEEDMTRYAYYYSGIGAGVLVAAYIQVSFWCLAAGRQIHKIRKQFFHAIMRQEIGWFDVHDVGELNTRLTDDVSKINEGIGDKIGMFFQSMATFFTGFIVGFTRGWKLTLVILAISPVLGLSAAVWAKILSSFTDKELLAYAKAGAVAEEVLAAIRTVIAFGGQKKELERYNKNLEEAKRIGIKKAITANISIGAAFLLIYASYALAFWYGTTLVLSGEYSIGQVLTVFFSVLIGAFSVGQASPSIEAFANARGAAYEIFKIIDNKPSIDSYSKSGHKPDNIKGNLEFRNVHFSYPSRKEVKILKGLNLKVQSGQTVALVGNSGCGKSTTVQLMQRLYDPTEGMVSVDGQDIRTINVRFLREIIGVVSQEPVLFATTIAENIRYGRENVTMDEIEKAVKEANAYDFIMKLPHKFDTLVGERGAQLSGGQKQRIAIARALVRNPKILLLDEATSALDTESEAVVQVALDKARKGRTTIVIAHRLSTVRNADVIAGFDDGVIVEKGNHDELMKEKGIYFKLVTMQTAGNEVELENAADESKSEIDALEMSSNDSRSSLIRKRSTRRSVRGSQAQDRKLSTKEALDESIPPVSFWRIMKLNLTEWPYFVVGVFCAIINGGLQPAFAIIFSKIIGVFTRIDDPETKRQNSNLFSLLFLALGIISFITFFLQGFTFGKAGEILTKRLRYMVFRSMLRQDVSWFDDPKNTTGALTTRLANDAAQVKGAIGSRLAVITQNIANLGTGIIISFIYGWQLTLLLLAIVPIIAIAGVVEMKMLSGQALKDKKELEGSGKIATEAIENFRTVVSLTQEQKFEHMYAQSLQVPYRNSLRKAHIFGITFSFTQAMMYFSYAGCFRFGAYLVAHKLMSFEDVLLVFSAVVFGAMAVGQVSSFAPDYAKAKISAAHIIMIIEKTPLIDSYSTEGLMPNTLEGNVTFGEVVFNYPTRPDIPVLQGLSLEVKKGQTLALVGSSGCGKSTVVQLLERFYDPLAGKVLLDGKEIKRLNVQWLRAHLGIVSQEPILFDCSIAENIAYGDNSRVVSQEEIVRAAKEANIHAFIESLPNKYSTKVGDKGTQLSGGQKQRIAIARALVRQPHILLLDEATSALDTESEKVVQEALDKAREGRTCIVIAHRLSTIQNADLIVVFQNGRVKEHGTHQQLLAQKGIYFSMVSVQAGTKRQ

Take `COc1ccc2cc1Oc1cccc(c1)C[C@H]1c3c(cc4c(c3Oc3cc5c(cc3OC)CCN(C)[C@@H]5C2)OCO4)CCN1C` [CEPHARANTHIN]: in data set [1], the Activity entry is “substrate [+]”. In data set [2], this compound had an IC50 of 2.06 µM.
